In one assay the target is T1, PDK-1 (Homo sapiens, UniProt O15530).
T1 sequence (O15530 1-556): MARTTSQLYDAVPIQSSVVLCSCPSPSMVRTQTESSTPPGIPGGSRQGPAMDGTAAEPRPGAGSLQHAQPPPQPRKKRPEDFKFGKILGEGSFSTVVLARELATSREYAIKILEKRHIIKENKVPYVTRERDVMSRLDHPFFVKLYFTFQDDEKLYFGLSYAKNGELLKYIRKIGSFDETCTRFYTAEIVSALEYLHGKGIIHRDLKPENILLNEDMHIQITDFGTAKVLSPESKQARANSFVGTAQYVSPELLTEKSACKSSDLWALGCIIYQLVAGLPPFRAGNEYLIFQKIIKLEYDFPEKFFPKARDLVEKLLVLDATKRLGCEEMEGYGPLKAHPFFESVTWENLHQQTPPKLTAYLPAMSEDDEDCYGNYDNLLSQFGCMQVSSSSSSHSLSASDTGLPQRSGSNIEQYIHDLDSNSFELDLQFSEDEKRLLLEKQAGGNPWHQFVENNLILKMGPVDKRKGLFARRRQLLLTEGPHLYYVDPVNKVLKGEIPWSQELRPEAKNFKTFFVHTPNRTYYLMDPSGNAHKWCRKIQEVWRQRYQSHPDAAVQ
Kind of assay: PDK-1 kinase inhibition ELISA assay (phosphorylation of His6-tagged SGK1 S422D by PDK-1).
Details: not given
It counts as biochemical. For orientation: ELISA stands for enzyme-linked immunosorbent assay.
Broadly, the IC50 is the concentration at which inhibition is half-maximal. In turn, `COc1ccccc1Nc1cncc(-c2cc3c(cnc4cc(OC)c(OC)cc43)c(N)n2)c1` [Ib-181, 8,9-dimethoxy-2-{5-[(2-methoxyphenyl)amino]pyridin-3-yl}benzo[c][2,7]naphthyridin-4-amine] registered an IC50 of 73.7 nM.

In turn, `COc1cc2ncc3c(N)nc(-c4cncc(Nc5ccccc5CO)c4)cc3c2cc1OC` [Ib-196, (2-{[5-(4-amino-8,9-dimethoxybenzo[c][2,7]naphthyridin-2-yl)pyridin-3-yl]amino}phenyl)methanol] gave an IC50 of 47 nM. Consider `COc1cc2ncc3c(N)nc(-c4cncc(Nc5ccccc5CCO)c4)cc3c2cc1OC` [Ib-197, 2-(2-{[5-(4-amino-8,9-dimethoxybenzo[c][2,7]naphthyridin-2-yl)pyridin-3-yl]amino}phenyl)ethanol], for which the midpoint of inhibition, the IC50, lay at 24 nM. The same measure, in the same setting: the result for `COc1cc2ncc3c(N)nc(-c4cncc(Nc5ccccc5F)c4)cc3c2cc1OC` [Ib-205, 2-{5-[(2-fluorophenyl)amino]pyridin-3-yl}-8,9-dimethoxybenzo[c][2,7]naphthyridin-4-amine] reads 183 nM.

Still in this assay, the particulars now being: PDK-1 ELISA, Table 11; read-out: Average IC50.
With `COc1cc2ncc3c(N)nc(-c4cncc(Nc5ccc(C#N)cc5)c4)cc3c2cc1OC` [Ib-180, 4-{[5-(4-amino-8,9-dimethoxybenzo[c][2,7]naphthyridin-2-yl)pyridin-3-yl]amino}benzonitrile], the IC50 came out at 600 nM. For the compound `COc1cc2ncc3c(N)nc(-c4cncc(Nc5ccccc5N)c4)cc3c2cc1OC` [Ib-182, N-[5-(4-amino-8,9-dimethoxybenzo[c][2,7]naphthyridin-2-yl)pyridin-3-yl]benzene-1,2-diamine], the IC50 was found to be 50.7 nM. Still for that read-out and setting: for `COc1cc2ncc3c(N)nc(-c4cncc(Nc5ccccc5Nc5ccccc5)c4)cc3c2cc1OC` [Ib-183, N-[5-(4-amino-8,9-dimethoxybenzo[c][2,7]naphthyridin-2-yl)pyridin-3-yl]-N′-phenylbenzene-1,2-diamine] the value was 505 nM; for `COc1cc2ncc3c(N)nc(-c4cncc(Nc5ccccc5N5CCOCC5)c4)cc3c2cc1OC` [Ib-184b, 8,9-dimethoxy-2-{5-[(2-morpholin-4-ylphenyl)amino]pyridin-3-yl}benzo[c][2,7]naphthyridin-4-amine], 74 nM. As for `COc1cc2ncc3c(N)nc(-c4cncc(Nc5ccccc5NC(C)=O)c4)cc3c2cc1OC` [Ib-185, N-(2-{[5-(4-amino-8,9-dimethoxybenzo[c][2,7]naphthyridin-2-yl)pyridin-3-yl]amino}phenyl)acetamide], the IC50 was determined as 37 nM. The same measure, in the same setting: the result for `COc1cc2ncc3c(N)nc(-c4cncc(Nc5ccccc5C(N)=O)c4)cc3c2cc1OC` [Ib-186, 2-{[5-(4-amino-8,9-dimethoxybenzo[c][2,7]naphthyridin-2-yl)pyridin-3-yl]amino}benzamide] reads 164 nM.

As to `CNC(=O)c1ccccc1Nc1cncc(-c2cc3c(cnc4cc(OC)c(OC)cc43)c(N)n2)c1` [Ib-187, 2-{[5-(4-amino-8,9-dimethoxybenzo[c][2,7]naphthyridin-2-yl)pyridin-3-yl]amino}-N-methylbenzamide], the concentration for half-maximal inhibition (IC50) was 110 nM. The same measure, in the same setting: the result for `COc1cc2ncc3c(N)nc(-c4cncc(Nc5cccc(C(N)=O)c5)c4)cc3c2cc1OC` [Ib-188, 3-{[5-(4-amino-8,9-dimethoxybenzo[c][2,7]naphthyridin-2-yl)pyridin-3-yl]amino}benzamide] reads 39 nM; that for `COc1cc2ncc3c(N)nc(-c4cncc(Nc5cccc(CN)c5)c4)cc3c2cc1OC` [Ib-189, 2-(5-{[3-(aminomethyl)phenyl]amino}pyridin-3-yl)-8,9-dimethoxybenzo[c][2,7]naphthyridin-4-amine], 27 nM; that for `COc1cc2ncc3c(N)nc(-c4cncc(Nc5c(F)c(F)c(C(N)=O)c(F)c5F)c4)cc3c2cc1OC` [Ib-190, 4-{[5-(4-amino-8,9-dimethoxybenzo[c][2,7]naphthyridin-2-yl)pyridin-3-yl]amino}-2,3,5,6-tetrafluorobenzamide], 197 nM. The same measure, in the same setting: for `CCN(CC)CCNC(=O)c1ccc(Nc2cncc(-c3cc4c(cnc5cc(OC)c(OC)cc54)c(N)n3)c2)cc1` [Ib-191, 4-{[5-(4-amino-8,9-dimethoxybenzo[c][2,7]naphthyridin-2-yl)pyridin-3-yl]amino}-N-[2-(diethylamino)ethyl]benzamide] the value was 81 nM; for `COc1cc2ncc3c(N)nc(-c4cncc(Nc5ccc(CN)cc5)c4)cc3c2cc1OC` [Ib-192, 2-(5-{[4-(aminomethyl)phenyl]amino}pyridin-3-yl)-8,9-dimethoxybenzo[c][2,7]naphthyridin-4-amine], 81 nM; for `COc1cc2ncc3c(N)nc(-c4cncc(Nc5ccc(C(=O)Nc6ccccc6)cc5)c4)cc3c2cc1OC` [Ib-193, 4-{[5-(4-amino-8,9-dimethoxybenzo[c][2,7]naphthyridin-2-yl)pyridin-3-yl]amino}-N-phenylbenzamide], 506 nM. Still for that read-out and setting: for `COc1cc2ncc3c(N)nc(-c4cncc(Nc5ccc(CO)cc5)c4)cc3c2cc1OC` [Ib-194, (4-{[5-(4-amino-8,9-dimethoxybenzo[c][2,7]naphthyridin-2-yl)pyridin-3-yl]amino}phenyl)methanol] the value was 142 nM; for `COc1cc2ncc3c(N)nc(-c4cncc(Nc5cccc(CO)c5)c4)cc3c2cc1OC` [Ib-195, (3-{[5-(4-amino-8,9-dimethoxybenzo[c][2,7]naphthyridin-2-yl)pyridin-3-yl]amino}phenyl)methanol], 67 nM. For the compound `COc1cc2ncc3c(N)nc(-c4cncc(Nc5ccc(CCO)cc5)c4)cc3c2cc1OC` [Ib-198, 2-(4-{[5-(4-amino-8,9-dimethoxybenzo[c][2,7]naphthyridin-2-yl)pyridin-3-yl]amino}phenyl)ethanol], the IC50 stood at 91 nM.

With `COc1cc2ncc3c(N)nc(-c4cncc(Nc5ccccn5)c4)cc3c2cc1OC` [Ib-199, 8,9-dimethoxy-2-[5-(pyridin-2-ylamino)pyridin-3-yl]benzo[c][2,7]naphthyridin-4-Amine], the IC50 was 476 nM. The same measure, in the same setting: the result for `COc1cc2ncc3c(N)nc(-c4cncc(Nc5cccnc5)c4)cc3c2cc1OC` [Ib-200, 8,9-dimethoxy-2-[5-(pyridin-3-ylamino)pyridin-3-yl]benzo[c][2,7]naphthyridin-4-Amine] reads 158 nM; that for `COc1cc2ncc3c(N)nc(-c4cncc(Nc5ccncc5)c4)cc3c2cc1OC` [Ib-201, 8,9-dimethoxy-2-[5-(pyridin-4-ylamino)pyridin-3-yl]benzo[c][2,7]naphthyridin-4-Amine], 477 nM. The same measure, in the same setting: for `COc1cc2ncc3c(N)nc(-c4cncc(Nc5ccccc5OCc5ccccc5)c4)cc3c2cc1OC` [Ib-202, 2-(5-{[2-(benzyloxy)phenyl]amino}pyridin-3-yl)-8,9-dimethoxybenzo[c][2,7]naphthyridin-4-amine] the value was 1000 nM; for `COc1cc2ncc3c(N)nc(-c4cncc(Nc5ccccc5)c4)cc3c2cc1OC` [Ib-203, 2-(5-anilinopyridin-3-yl)-8,9-dimethoxybenzo[c][2,7]naphthyridin-4-amine], 283 nM; for `COc1cc2ncc3c(N)nc(-c4cncc(Nc5ccccc5-c5ccccc5)c4)cc3c2cc1OC` [Ib-204, 2-[5-(biphenyl-2-ylamino)pyridin-3-yl]-8,9-dimethoxybenzo[c][2,7]naphthyridin-4-Amine], 51 nM.

The values are drawn from patent US20080293712A1, “Benzo[C][2,7]Naphtyridine Derivatives, Methods of Making Thereof and Methods of Use Thereof” (WYETH, priority 2007, published 2008).
